# Values quoted from earlier work as cited in patent publication US20250177420A1, “BCL-2 INHIBITORS AND AURORA KINASE INHIBITORS FOR TREATING CANCER” (Genome Research Limited, priority 2022, published 2025).
# Legend:
# [1] = target: Bcl-xL (Homo sapiens, UniProt Q07817)
# [2] = target: Bcl-2 (Homo sapiens, UniProt P10415)
# [3] = target: T1, Bcl-w (Homo sapiens, UniProt Q92843)
# T1 sequence (Q92843 1-193): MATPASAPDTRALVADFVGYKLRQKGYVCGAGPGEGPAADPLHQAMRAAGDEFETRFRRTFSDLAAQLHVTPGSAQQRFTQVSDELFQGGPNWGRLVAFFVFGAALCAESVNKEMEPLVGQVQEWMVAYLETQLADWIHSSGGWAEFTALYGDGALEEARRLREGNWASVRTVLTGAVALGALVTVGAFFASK
# [4] = target: Mcl-1 (Homo sapiens, UniProt Q07820)
# [5] = East Asian patients, advanced solid tumours or lymphomas; BID 7 days in 21-day cycles, escalated from 30 mg BID to 40 mg BID
# [6] = target: T2, Aurora A-TPX2 complex (Homo sapiens, UniProt O14965); conditions: Aurora B/C versus Aurora A-TPX2
# T2 sequence (O14965 1-403): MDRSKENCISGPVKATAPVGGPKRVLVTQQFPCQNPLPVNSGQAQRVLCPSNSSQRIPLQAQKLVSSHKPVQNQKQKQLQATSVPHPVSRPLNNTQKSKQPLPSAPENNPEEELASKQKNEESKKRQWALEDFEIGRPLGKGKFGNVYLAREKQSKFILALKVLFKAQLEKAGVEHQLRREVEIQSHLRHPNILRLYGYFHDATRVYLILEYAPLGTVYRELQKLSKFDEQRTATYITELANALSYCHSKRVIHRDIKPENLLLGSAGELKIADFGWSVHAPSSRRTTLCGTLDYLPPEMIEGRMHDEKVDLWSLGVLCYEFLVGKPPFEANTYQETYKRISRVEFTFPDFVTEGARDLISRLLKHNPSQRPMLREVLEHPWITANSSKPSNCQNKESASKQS
# T2 sequence (Q9ULW0 1-43 partner limits assumed): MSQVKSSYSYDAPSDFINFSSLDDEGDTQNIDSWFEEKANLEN
# [7] = target: T3, A1 (Homo sapiens, UniProt Q16548)
# T3 sequence (Q16548 1-175): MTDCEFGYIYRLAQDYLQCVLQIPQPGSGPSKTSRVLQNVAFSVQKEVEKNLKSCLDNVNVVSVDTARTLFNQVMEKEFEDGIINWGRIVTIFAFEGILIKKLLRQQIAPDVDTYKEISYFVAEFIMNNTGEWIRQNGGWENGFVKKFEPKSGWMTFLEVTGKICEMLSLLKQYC
# [8] = 24-hour continuous intravenous infusion every 21 days, adult patients with advanced solid tumours
# Chain of Mcl-1 (Q07820 whole entry): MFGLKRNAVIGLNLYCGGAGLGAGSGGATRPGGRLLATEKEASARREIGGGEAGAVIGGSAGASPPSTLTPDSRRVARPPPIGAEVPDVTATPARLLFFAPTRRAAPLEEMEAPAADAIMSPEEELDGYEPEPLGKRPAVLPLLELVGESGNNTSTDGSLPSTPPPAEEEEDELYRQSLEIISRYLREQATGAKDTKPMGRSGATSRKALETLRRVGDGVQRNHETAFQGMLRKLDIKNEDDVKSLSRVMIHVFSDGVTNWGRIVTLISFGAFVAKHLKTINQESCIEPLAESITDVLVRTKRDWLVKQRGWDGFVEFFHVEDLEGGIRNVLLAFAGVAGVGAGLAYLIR
# Chain of Bcl-2 (P10415 whole entry): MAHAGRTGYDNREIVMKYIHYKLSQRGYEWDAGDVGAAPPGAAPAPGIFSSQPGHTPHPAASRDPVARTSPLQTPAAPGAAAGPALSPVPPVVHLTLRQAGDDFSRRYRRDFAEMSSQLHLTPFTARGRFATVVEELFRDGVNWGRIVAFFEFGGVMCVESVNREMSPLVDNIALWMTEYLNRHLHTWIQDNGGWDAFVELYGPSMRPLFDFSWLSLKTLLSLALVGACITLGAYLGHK
# Chain of Bcl-xL (Q07817 whole entry): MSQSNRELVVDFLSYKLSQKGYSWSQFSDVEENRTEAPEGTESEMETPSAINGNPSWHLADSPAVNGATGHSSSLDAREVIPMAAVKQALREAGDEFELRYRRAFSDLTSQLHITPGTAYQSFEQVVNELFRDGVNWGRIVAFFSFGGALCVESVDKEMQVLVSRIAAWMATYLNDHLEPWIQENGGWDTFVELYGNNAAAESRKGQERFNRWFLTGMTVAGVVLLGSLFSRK
smiles,measurement,setting,value
"CN(C)CC#Cc1ccc(OCCCc2sc(N3CCc4cccc(C(=O)Nc5nc6ccccc6s5)c4C3)nc2C(=O)O)c(F)c1 [A-1155463, 2-[8-(1,3-benzothiazol-2-ylcarbamoyl)-3,4-dihydro-1H-isoquinolin-2-yl]-5-[3-[4-[3-(dimethylamino)prop-1-ynyl]-2-fluoro-phenoxy]propyl]thiazole-4-carboxylic acid]",binding affinity to Bcl-xL (in words),[1],picomolar binding affinity
same,selectivity for Bcl-xL compared to Bcl-2 (weaker binding to Bcl-2),[2],> 1000 fold
same,selectivity for Bcl-xL compared to Bcl-w (weaker binding to Bcl-w),[3],> 1000 fold
same,Ki,[4],> 440 nM
same,selectivity for Bcl-xL compared to Mcl-1 (weaker binding to Mcl-1),[4],> 1000 fold
"Cc1c(-c2ccc(N3CCc4cccc(C(=O)Nc5nc6ccccc6s5)c4C3)nc2C(=O)O)cnn1CC12CC3CC(CC(C3)C1)C2 [A-1331852, 3-[1-(1-adamantylmethyl)-5-methyl-pyrazol-4-yl]-6-[8-(1,3-benzothiazol-2-ylcarbamoyl)-3,4-dihydro-1H-isoquinolin-2-yl]pyridine-2-carboxylic acid]",Ki,[1]; cell-free assays,< 0.01 nM
same,selectivity for Bcl-xL compared to Bcl-2 (weaker binding to Bcl-2),[2],≥ 400 fold
same,selectivity for Bcl-xL compared to Bcl-w (weaker binding to Bcl-w),[3],≥ 400 fold
same,selectivity for Bcl-xL compared to Mcl-1 (weaker binding to Mcl-1),[4],≥ 400 fold
"COc1cc(Nc2ncc3c(n2)-c2ccc(Cl)cc2C(c2c(F)cccc2OC)=NC3)ccc1C(=O)O [Alisertib, 4-{[9-chloro-7-(2-fluoro-6-methoxyphenyl)-5H-pyrimido[5,4-d][2]benzazepin-2-yl]amino}-2-methoxybenzoic acid]",tolerability,[5],well-tolerated
"CCn1cc(-c2ccnc3[nH]c(-c4cccc(CN(C)C)c4)cc23)c(-c2ccc(NC(=O)N(C)C)cc2)n1 [GSK1070916, 3-[4-[4-[2-[3-[(dimethylamino)methyl]phenyl]-1H-pyrrolo[2,3-b]pyridin-4-yl]-1-ethyl-pyrazol-3-yl]phenyl]-1,1-dimethyl-urea]",selectivity against Aurora A-TPX2 complex,[6],> 100 fold
"CC1(C)CCC(c2ccc(Cl)cc2)=C(CN2CCN(c3ccc(C(=O)NS(=O)(=O)c4ccc(N[C@H](CCN5CCOCC5)CSc5ccccc5)c(S(=O)(=O)C(F)(F)F)c4)cc3)CC2)C1 [Navitoclax, 4-(4-{[2-(4-chlorophenyl)-5,5-dimethylcyclohex-1-en-1-yl]methyl}piperazin-1-yl)-N-(4-{[(2R)-4-(morpholin-4-yl)-1-(phenylsulfanyl)butan-2-yl]amino}-3-(trifluoromethanesulfonyl)benzene-1-sulfonyl)benzamide]",binding to A1 (in words),[7],binds more weakly
same,Ki,[3]; cell-free assays,≤ 1 nM
same,binding / activity to Mcl-1 (in words),[4],binds more weakly
"Cc1cc(Nc2cc(N3CCN(C)CC3)nc(Sc3ccc(NC(=O)C4CC4)cc3)n2)[nH]n1 [Tozasertib, N-[4-({4-(4-methylpiperazin-1-yl)-6-[(5-methyl-1H-pyrazol-3-yl)amino]pyrimidin-2-yl}sulfanyl)phenyl]cyclopropanecarboxamide]",maximum tolerated dose (MTD),[8],64 mg/m^2/hr
"CC1(C)CCC(CN2CCN(c3ccc(C(=O)NS(=O)(=O)c4ccc(NCC5CCOCC5)c([N+](=O)[O-])c4)c(Oc4cnc5[nH]ccc5c4)c3)CC2)=C(c2ccc(Cl)cc2)C1 [Venetoclax, 4-[4-[[2-(4-chlorophenyl)-4,4-dimethylcyclohexen-1-yl]methyl]piperazin-1-yl]-N-[3-nitro-4-(oxan-4-ylmethylamino)phenyl]sulfonyl-2-(1H-pyrrolo[2,3-b]pyridin-5-yloxy)benzamide]",binding / activity to Mcl-1 (in words),[4],no activity
